# Source: US20040229844A1, “Method of treating atherosclerosis, dyslipidemias and related conditions” (priority 2003, published 2004)
# Entries after “also recorded” stand apart in the source; their conditions may differ.
# Tests used:
# [1] = system: prostaglandin D2-induced vasodilation; assay: Prostaglandin D2-induced vasodilation in mice; format: in vivo, mouse; conditions: FIG. 1
# Text: Compound D suppressed PGD-2 induced vasodilation in the mouse (FIG. 1). The DP antagonists tested suppressed nicotinic acid-induced vasodilation in the mouse; data for selected compounds is provided in FIGS. 2 and 3.
# [2] = system: nicotinic acid-induced vasodilation; assay: Nicotinic acid-induced vasodilation in mice (ear perfusion, laser Doppler); format: in vivo, mouse; conditions: male C57BL/6 mice, DP antagonist ~40 mpk i.p., nicotinic acid ~100 mpk s.c., FIGS. 2 and 3
# Description: Blood flow in the mouse ear (a measure of vasodilation, a prominent component of flushing in humans) is measured after administration of nicotinic acid to mice that had been pretreated with vehicle (as a control) or a DP antagonist. Specifically, male C57BL/6 mice (˜25 g) were used in the study. Five mice were evaluated in each test group. Nembutal was diluted with water to a final concentration of 5 mg/ml and injected 0.3 ml/mouse intraperitoneally. DP antagonists were dissolved in 5% hydroxypropyl β-cyclodextrin at a final concentration of 5 mg/mi and the compounds were administered intraperitoneally at a volume of 0.2 mi/mouse (˜40 mpk). Nicotinic acid was dissolved in 5% hydroxypropyl β-cyclodextrin at a final concentration of 12.5 mg/mi. […]
# Perfusion of mouse ear skin was monitored with a laser Doppler perfusion imager (PeriScan PIM II, Perimed, Sweden) every 30 seconds for 15 minutes starting 5 minutes prior to nicotinic acid administration. Percent changes in mean perfusion over the 10 minute period after vehicle or nicotinic acid administration were calculated and a graph of percent change in mean perfusion vs. time was generated for each animal. The area under the curve (AUC) of mean perfusion (% Δ×min) was then calculated from each graph and the results are expressed in mean AUC±SEM for each group.
structure (smiles),measurement,setting,value
CC(O)c1cc(S(C)(=O)=O)cc2c3c(n(Cc4ccc(Cl)cc4)c12)[C@@H](CC(=O)O)CC3 (some centres unmarked) [Compound D],inhibition of prostaglandin D2-induced vasodilation,[1],inhibits; also recorded: suppressed
same,inhibition of nicotinic acid-induced vasodilation,[2],inhibits
